“And” between values parts separate entries of the source, which are not always exact repeats. Equal entries are not always repeated.
Legend:
[1] = for surface tension liquid-gas: Pendant drop shape; for mass density: 101.33 kPa, Liquid
[2] = xn = mol fraction of the nth substance listed; conditions: Pendant drop shape

COC(C)(C)OC [3,3-dimethyl-2,4-dioxapentane]
[1]
Conditions	mass density [kg/m3]	surface tension liquid-gas [mN/m]
298.15 K	845.09	21.46
308.15 K	834.41	20.43
313.15 K	828.99	19.91

Cc1ccc(C)c(C)c1 [1,2,4-trimethylbenzene]
[1]
Conditions	mass density [kg/m3]	surface tension liquid-gas
298.15 K	871.71	29.3 mN/m
308.15 K	863.68	28.24 mN/m
313.15 K	859.58	27.67 mN/m and 27.71 mN/m

CCOC(C)OCC [1,1-diethoxyethane] + Cc1cc(C)cc(C)c1
[2]
Conditions	surface tension liquid-gas [mN/m]
298.15 K, x1 = 0.0491	27.45
298.15 K, x1 = 0.1013	26.91
298.15 K, x1 = 0.1538	26.36
298.15 K, x1 = 0.1996	25.83
298.15 K, x1 = 0.2501	25.34
298.15 K, x1 = 0.3009	24.81
298.15 K, x1 = 0.3501	24.37
298.15 K, x1 = 0.4067	23.83
298.15 K, x1 = 0.4506	23.45
298.15 K, x1 = 0.4997	23.04
298.15 K, x1 = 0.5523	22.62
298.15 K, x1 = 0.601	22.26
298.15 K, x1 = 0.6508	21.92
298.15 K, x1 = 0.7006	21.64
298.15 K, x1 = 0.7507	21.43
298.15 K, x1 = 0.8014	21.2
298.15 K, x1 = 0.851	21.09
298.15 K, x1 = 0.8994	21.02
298.15 K, x1 = 0.9487	20.95
298.15 K, x1 = 1	20.88
308.15 K, x1 = 0.0488	26.55
308.15 K, x1 = 0.1009	25.97
308.15 K, x1 = 0.1495	25.4
308.15 K, x1 = 0.1991	24.86
308.15 K, x1 = 0.2498	24.32
308.15 K, x1 = 0.3014	23.84
308.15 K, x1 = 0.3503	23.35
308.15 K, x1 = 0.4004	22.89
308.15 K, x1 = 0.4508	22.44
308.15 K, x1 = 0.5011	22.03
308.15 K, x1 = 0.5503	21.61
308.15 K, x1 = 0.5979	21.25
308.15 K, x1 = 0.6511	20.9
308.15 K, x1 = 0.6997	20.62
308.15 K, x1 = 0.7503	20.33
308.15 K, x1 = 0.7977	20.15
308.15 K, x1 = 0.8462	20.04
308.15 K, x1 = 0.8993	19.95
308.15 K, x1 = 0.9418	19.93
308.15 K, x1 = 1	19.89
313.15 K, x1 = 0.0487	26.09
313.15 K, x1 = 0.0991	25.49
313.15 K, x1 = 0.1507	24.91
313.15 K, x1 = 0.1999	24.37
313.15 K, x1 = 0.2468	23.86
313.15 K, x1 = 0.3001	23.34
313.15 K, x1 = 0.3501	22.83
313.15 K, x1 = 0.4008	22.38
313.15 K, x1 = 0.4502	21.95
313.15 K, x1 = 0.5	21.54
313.15 K, x1 = 0.5495	21.12
313.15 K, x1 = 0.6005	20.73
313.15 K, x1 = 0.6506	20.4
313.15 K, x1 = 0.7005	20.11
313.15 K, x1 = 0.7514	19.8
313.15 K, x1 = 0.7996	19.63
313.15 K, x1 = 0.8494	19.52
313.15 K, x1 = 0.9003	19.48
313.15 K, x1 = 0.9498	19.44
313.15 K, x1 = 1	19.42

Cc1ccc(C)c(C)c1 [1,2,4-trimethylbenzene] + CCOC(C)OCC
[2], x2 = 0
Conditions	surface tension liquid-gas [mN/m]
298.15 K	29.3
308.15 K	28.24
313.15 K	27.71

Cc1cc(C)cc(C)c1 [1,3,5-trimethylbenzene] + COC(C)(C)OC
[2], x2 = 0
Conditions	surface tension liquid-gas [mN/m]
298.15 K	28.05
308.15 K	27.21
313.15 K	26.78

COC(C)(C)OC [3,3-dimethyl-2,4-dioxapentane] + Cc1cc(C)cc(C)c1
[2]
Conditions	surface tension liquid-gas [mN/m]
298.15 K, x1 = 0.05	27.6
298.15 K, x1 = 0.1002	27.14
298.15 K, x1 = 0.1494	26.72
298.15 K, x1 = 0.2001	26.28
298.15 K, x1 = 0.252	25.88
298.15 K, x1 = 0.3001	25.47
298.15 K, x1 = 0.3496	25.1
298.15 K, x1 = 0.3998	24.7
298.15 K, x1 = 0.4525	24.33
298.15 K, x1 = 0.4998	23.98
298.15 K, x1 = 0.5497	23.62
298.15 K, x1 = 0.5996	23.26
298.15 K, x1 = 0.6506	22.93
298.15 K, x1 = 0.7002	22.64
298.15 K, x1 = 0.7503	22.37
298.15 K, x1 = 0.7993	22.11
298.15 K, x1 = 0.8511	21.89
298.15 K, x1 = 0.8986	21.7
298.15 K, x1 = 0.9494	21.57
298.15 K, x1 = 1	21.46
308.15 K, x1 = 0.0562	26.65
308.15 K, x1 = 0.0995	26.21
308.15 K, x1 = 0.1481	25.77
308.15 K, x1 = 0.2023	25.29
308.15 K, x1 = 0.2502	24.87
308.15 K, x1 = 0.3002	24.49
308.15 K, x1 = 0.3497	24.06
308.15 K, x1 = 0.3982	23.71
308.15 K, x1 = 0.4499	23.31
308.15 K, x1 = 0.4964	22.95
308.15 K, x1 = 0.5493	22.54
308.15 K, x1 = 0.6001	22.17
308.15 K, x1 = 0.6502	21.85
308.15 K, x1 = 0.7006	21.52
308.15 K, x1 = 0.7454	21.27
308.15 K, x1 = 0.7999	20.99
308.15 K, x1 = 0.8492	20.74
308.15 K, x1 = 0.8998	20.57
308.15 K, x1 = 0.9492	20.48
308.15 K, x1 = 1	20.43
313.15 K, x1 = 0.0511	26.21
313.15 K, x1 = 0.1023	25.71
313.15 K, x1 = 0.1503	25.26
313.15 K, x1 = 0.2014	24.79
313.15 K, x1 = 0.2506	24.39
313.15 K, x1 = 0.3013	23.95
313.15 K, x1 = 0.3498	23.56
313.15 K, x1 = 0.396	23.19
313.15 K, x1 = 0.4486	22.77
313.15 K, x1 = 0.5014	22.36
313.15 K, x1 = 0.5508	21.99
313.15 K, x1 = 0.5931	21.68
313.15 K, x1 = 0.6488	21.31
313.15 K, x1 = 0.6988	20.99
313.15 K, x1 = 0.7499	20.66
313.15 K, x1 = 0.7994	20.4
313.15 K, x1 = 0.8388	20.24
313.15 K, x1 = 0.8976	20
313.15 K, x1 = 0.944	19.95
313.15 K, x1 = 1	19.91

Reference: the NIST ThermoML archive (doi:10.1021/je060490w)
